Consider two compounds from patent US20130102554A1, “COMPOSITION FOR TREATMENT OF OBESITY USING WHEAT BRAN EXTRACT OR ACTIVE INGREDIENT ISOLATED THEREFROM” (priority 2009, published 2013).

SMILES strings stand for the structures.

The subject of experiment [1] is PPARγ. Put plainly: Expression of PPARγ at protein level, SDS-PAGE and immunoblot in 3T3-L1 cells. The class given is cell-based, mouse. The following applies: 3T3-L1, compared with β-actin; FIGS. 17 and 18. On the procedure: (§1) After the 313-L1 cells were treated with the samples (Red-dog A & Red-dog B, Compounds 1 & 2) at regular intervals of two days in the same manner as in the adipocyte differentiation method, they were washed twice with PBS and lyzed in RIPA buffer (50 mM Tris-HCl, pH 8.0, 150 mM sodium chloride, 1% NP-40, 0.5% sodium dexycholate, 0.1% sodium dodecyl sulfate, protease inhibitor). Proteins harvested by centrifugation at 13,000 rpm for 30 min were separated on 8% SDS-PAGE gel and then transferred onto a membrane. The membrane was blocked with TBST containing 5% skim milk and reacted with a primary antibody (PPARγ, C/EBPα) (Santa Cruz) and then with a secondary antibody (Santa Cruz), followed by color development with an ECL reagent (Thermo scientific) to compare the expression level of PPARγ and C/EBPα with that of β-actin.

Experiment [2] concerns the target T1, PPARγ (Homo sapiens, UniProt P37231).
T1 construct: expressed in transfected cells; host or cells: HEK 293T
T1 sequence (P37231 1-505): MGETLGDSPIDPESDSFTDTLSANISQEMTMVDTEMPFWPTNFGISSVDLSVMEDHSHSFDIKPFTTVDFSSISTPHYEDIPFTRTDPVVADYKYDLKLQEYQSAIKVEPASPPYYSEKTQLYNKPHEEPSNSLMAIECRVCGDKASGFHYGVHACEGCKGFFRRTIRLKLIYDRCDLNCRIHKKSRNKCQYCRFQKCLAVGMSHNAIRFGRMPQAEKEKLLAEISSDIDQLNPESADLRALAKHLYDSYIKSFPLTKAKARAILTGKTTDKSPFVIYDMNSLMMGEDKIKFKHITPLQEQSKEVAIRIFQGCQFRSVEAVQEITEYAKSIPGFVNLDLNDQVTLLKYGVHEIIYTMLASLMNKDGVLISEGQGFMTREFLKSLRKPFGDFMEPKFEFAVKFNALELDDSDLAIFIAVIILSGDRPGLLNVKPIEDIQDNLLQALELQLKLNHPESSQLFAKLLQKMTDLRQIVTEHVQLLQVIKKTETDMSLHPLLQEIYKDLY
Put plainly: PPARγ transcriptional activity, PPRE luciferase reporter in HEK 293T cells. The class given is cell-based. The following applies: 24 hours, alone or with 10 μM troglitazone, FIGS. 9 and 10. On the procedure:
HEK 293T cells were co-transfected with a recombinant pGL3-basic luciferase expression vector (Promega) carrying a PPRE (PPARγ response element) gene and a PPARγ gene and a pRL-SV-40 plasmid (Promega) carrying a Renilla luciferase cDNA as a control reporter. One day after transfection, the cells were treated for 24 hours with predetermined concentrations of the samples (Red-dog A, Red-dog B and Compounds 1 & 2) alone or in combination with 10 μM troglitazone, a ligand to PPARγ. The inhibitory activity of the samples against the transcription factor PPARγ was determined by measuring the expression levels of luciferase.
(Reporter assays use an easily measured gene product as a stand-in for the process of interest.)

Experiment [3] concerns mouse preadipocyte 3T3-L1. In words: Adipocyte differentiation of 3T3-L1 preadipocytes (MDI induction, Oil Red O staining, absorbance at 510 nm). The class given is cell-based. The following applies: FIGS. 3 to 8; for differentiation of preadipocytes into adipocytes: 3T3-L1, MDI-induced, day 8, Oil Red O; for lipid accumulation of adipocytes: 3T3-L1, Oil Red O lipid contents. On the procedure:
The mouse preadipocyte 3T3-L1 was cultured at 37° C. in 10% BCS DMEM under a 5% CO2 condition.
3T3-L1 preadipocytes were seeded at a density of 5×10^4 cells/well into 24-well plates. After being grown to 100% confluency, the cells were incubated for an additional two days. Then, the preadipocytes were induced to differentiate into adipcytes in the presence of MDI (0.5 mM 3-isobutyl-1-methylxanthine (IBMX), 1 μM dexamethasone, 1 μg/ml insulin) in 10% FBS DMEM. After incubation for 48 hours in this medium, the cells were cultured for two days in 10% FBS DMEM containing 1 μg/ml insulin. Subsequently, the cells were cultured for four days in 10% FBS DMEM, with replacement of the medium with a fresh one every two days. During adipocyte differentiation, the cells were treated with predetermined concentrations of the samples. On day 8 at which differentiation was completed, observations were made of the differentiation of the cells. In this connection, the adipose differentiation was qualitatively analyzed with Oil Red 0 staining under an optical microscope and quantitatively analyzed by measuring absorbance at 510 nm.

Experiment [4] deals with C/EBRα. Put plainly: Expression of C/EBRα at protein level, SDS-PAGE and immunoblot in 3T3-L1 cells. The following applies: 3T3-L1, compared with β-actin; FIGS. 17 and 18. The class given is cell-based, mouse. On the procedure: as §1
Background: In western blotting, separated proteins are transferred to a membrane and probed.

Experiment [5] concerns aP2. In words: Anti-insulin resistance assay: aP2 expression at gene level in differentiated 3T3-L1 cells. The following applies: cells differentiated for 8 days, FIGS. 19 to 24. The class given is cell-based, mouse. On the procedure:
(§2) To examine whether the samples (Red-dog A & Red-dog B, compounds 1 & 2) are effective as anti-insulin resistance agents, expression levels of resistin, aP2 and Fas in the cells that had been differentiated for 8 days as in Experimental Example 1 were analyzed using the primers of Table 2, below.

Experiment [6] deals with ADD1/SREBP1c. Put plainly: Expression of ADD1/SREBP1c at gene level, real-time PCR in differentiated 3T3-L1 cells. The class given is cell-based, mouse. The following applies: 3T3-L1 differentiated 8 days, GAPDH control, FIGS. 11 to 16. On the procedure: (§3) During adipocyte differentiation, expression levels of PPARγ, C/EBRα and ADD1/SREBP1c are increased.
(§4) After being treated with predetermined concentrations of the samples (Red-dog A, Red-dog B and Compounds 1 & 2) in the same manner as in Experimental Example 1-2, the cells were induced to differentiate into adipocytes for 8 days. The expression levels of PPARγ, C/EBRα and ADD1/SREBP1c were analyzed using real-time PCR. The 3T3-L1 cells were washed twice with PBS after differentiation for 8 days and the cell pellets were used for RNA isolation using an RNA prep kit (Qiagen). cDNA was synthesized from 1 μg of the isolated RNA before real-time PCR using SYBR green (Takara) and the primers given in Table 1, below. As a control gene, GAPDH was used. In this regard, the cDNA synthesized from 1 μg of RNA was diluted 1/50 to a volume of 5 μL and mixed with 0.5 μL of each of 10 pmole primer, 10 μL of 2XSYBR green, and […] of distilled water to give a PCR mix with a total volume of 20 μL. Real-time PCR started with denaturation at 95° C. for 30 sec, followed by 40 thermal cycles of denaturation at 95° C. for 5 sec, annealing for 60° C. for 15 sec and extension at 72° C. for 10 sec. The melt curve consisted of 80 melt cycles, starting at 55° C. to 95° C. with increments of 0.5° C. per cycle. Desired fluorescent signals were detected (data analysis was done with Bio-Rad MyiQ program).
(Real-time PCR tracks product formation cycle by cycle.)

For experiment [7], the system named is Fas. In words: Anti-insulin resistance assay: Fas expression at gene level in differentiated 3T3-L1 cells. In kind it is cell-based, mouse. The following applies: cells differentiated for 8 days, FIGS. 19 to 24. On the procedure: as §2
Experiment [8] deals with PPARγ. In words: Expression of PPARγ at gene level, real-time PCR in differentiated 3T3-L1 cells. The class given is cell-based, mouse. The following applies: 3T3-L1 differentiated 8 days, GAPDH control, FIGS. 11 to 16. How it is done:
as §3, §4

Experiment [9] deals with resistin. In words: Anti-insulin resistance assay: resistin expression at gene level in differentiated 3T3-L1 cells. In kind it is cell-based, mouse. The following applies: cells differentiated for 8 days, FIGS. 19 to 24. On the procedure: as §2
Experiment [10] relates to C/EBRα. In words: Expression of C/EBRα at gene level, real-time PCR in differentiated 3T3-L1 cells. In kind it is cell-based, mouse. The following applies: 3T3-L1 differentiated 8 days, GAPDH control, FIGS. 11 to 16. How it is done:
as §3, §4

On to `COc1cc(OC2OC(CO)[C@@H](O)[C@H](O)[C@@H]2O)ccc1O` (stereo partly drawn) [Compound 1, methoxy-hydroquinone-4-β-D-glucopyranoside], for which the “expression of PPARγ at protein level” value in [1] is “inhibited the expression of PPARγ and C/EBRα in dose-dependent manners”. Further, in experiment [2], the “transcriptional activity of PPARγ” value is given as “inhibited the transcriptional activity of PPARγ in a dose-dependent manner”. For the same compound, in experiment [3], the “differentiation of preadipocytes into adipocytes” value is “inhibited the differentiation of preadipocytes into adipocytes in dose-dependent manners”. The “lipid accumulation of adipocytes” value in experiment [3] is on record as “inhibitory activities”. For the same compound, the “expression of C/EBRα at protein level” value in [4] is “inhibited the expression of PPARγ and C/EBRα in dose-dependent manners”. Also, the “expression of aP2 at the genetic level” value was “inhibit the expression of resistin, aP2 and Fas in dose-dependent manners” in experiment [5]; “significantly suppressed” in experiment [5] (listed as Chemical Formula 1). In addition, the “expression of ADD1/SREBP1c at the genetic level” value in experiment [6] is “inhibit the expression of PPARγ, C/EBRα and ADD1/SREBP1c in dose-dependent manners”. Moreover, the “expression of Fas at the genetic level” value in experiment [7] was “inhibit the expression of resistin, aP2 and Fas in dose-dependent manners”; in [7] (listed as Chemical Formula 1) it was “significantly suppressed”. Further, in experiment [8], the “expression of PPARγ at the genetic level” value is “inhibit the expression of PPARγ, C/EBRα and ADD1/SREBP1c in dose-dependent manners”. Further, the “expression of resistin at the genetic level” value in experiment [9] was “inhibit the expression of resistin, aP2 and Fas in dose-dependent manners”; in experiment [9] (listed as Chemical Formula 1) it was “significantly suppressed”. For the same compound, the “expression of C/EBRα at the genetic level” value in experiment [10] is “inhibit the expression of PPARγ, C/EBRα and ADD1/SREBP1c in dose-dependent manners”.

With `CCCCCC(O)C(O)/C=C/C(O)CCCCCCCC(=O)O` (stereo not shown) [Compound 2, 9,12,13-trihydroxy-10(E)-octadecenoic acid], the “expression of PPARγ at protein level” value in experiment [1] was “inhibited the expression of PPARγ and C/EBRα in dose-dependent manners”. Moreover, the “transcriptional activity of PPARγ” value in [2] is recorded as “inhibited the transcriptional activity of PPARγ in a dose-dependent manner”. Further, the “differentiation of preadipocytes into adipocytes” value in [3] is recorded as “inhibited the differentiation of preadipocytes into adipocytes in dose-dependent manners”. Also, the “lipid accumulation of adipocytes” value in experiment [3] is recorded as “inhibitory activities”. For the same compound, the “expression of C/EBRα at protein level” value in [4] is “inhibited the expression of PPARγ and C/EBRα in dose-dependent manners”. The “expression of aP2 at the genetic level” value in experiment [5] is “inhibit the expression of resistin, aP2 and Fas in dose-dependent manners”; in experiment [5] (listed as Chemical Formula 2) it was “significantly suppressed”. Besides, the “expression of ADD1/SREBP1c at the genetic level” value in [6] is “inhibit the expression of PPARγ, C/EBRα and ADD1/SREBP1c in dose-dependent manners”. Besides, the “expression of Fas at the genetic level” value in experiment [7] was “inhibit the expression of resistin, aP2 and Fas in dose-dependent manners”; in experiment [7] (listed as Chemical Formula 2) it was “significantly suppressed”. The “expression of PPARγ at the genetic level” value in experiment [8] is “inhibit the expression of PPARγ, C/EBRα and ADD1/SREBP1c in dose-dependent manners”. The “expression of resistin at the genetic level” value was “inhibit the expression of resistin, aP2 and Fas in dose-dependent manners” in [9]; “significantly suppressed” in experiment [9] (listed as Chemical Formula 2). Further, the “expression of C/EBRα at the genetic level” value in [10] is “inhibit the expression of PPARγ, C/EBRα and ADD1/SREBP1c in dose-dependent manners”.
